Results published in patent US20220315888A1, “CULTURE METHOD FOR RETINAL ORGANOIDS” (University of Newcastle Upon Tyne, priority 2019, published 2022).
“Also recorded” adds a separate entry of the source.

Legend:
Type in all cases: cell-based, human
[1] = tested on: Rhodopsin expression in retinal organoids derived from hESCs; experiment: Immunohistochemistry quantification of Rhodopsin+ cells (rods) at day 150; details: addition day 90-120, organoids at day 150, compared to vehicle control
Description: Human Pluripotent Stem Cells differentiation to retinal organoids Retinal organoids were differentiated from the CRX-GFP H9 human ESC cell line using a feeder-free system. ESCs were expanded in […] Technologies, 05850) at 37° C. and 5% CO2 on 6 well plates pre-coated with Low Growth Factor Matrigel (Corning, 354230). The retinal organoids were generated following a protocol described in Collin et al., 2019 [25] with addition of various supplements, which are shown in FIG. 1. […] DAPT was only added from day 30-42 (for day 30-60 combined addition with RA from day 30-60), day 60-72 (for the combined addition with RA from day 60-90), day 90-102 (for the combined addition with RA from day 90-120) and day 30-42 (for the combined addition with RA from day 30-120). Retinal organoids were collected on day 150 and fixed in 2% PFA for 30 minutes, followed by three washes in Phosphate-buffered saline (PBS), incubated overnight in 30% sucrose in PBS, embedded in Optical Cutting medium (OCT) ([…], UK) and frozen at -20° C. Ten-micrometre cryostat sections were collected using a Leica Cm1860 cryostat (Leica, Germany) onto Superfrost Plus slides and stored at -20° C. in slide boxes prior to immunostaining. Cryosections were air-dried, washed several times in PBS and incubated in blocking solution (10% normal goat serum, 0.3% Triton-X-100 in PBS) for one hour at room temperature. Slides were incubated with the appropriate primary antibody overnight at 4° C. (Table 2). After rinsing with PBS, sections were incubated with the secondary antibody for 2 hours at room temperature. Alexa Fluor 647 and 546 secondary antibodies (InvitrogenMolecular Probes) were used at a 1:1000 dilution. Negative controls were carried out by omitting the primary antibody. Afterwards, sections were washed three times in PBS and mounted with Vectashield (Vector Laboratories, Burlingame, Calif.) containing Hoechst (LifeTechnologies, UK). Images were captured using an Axio Imager upright microscope with Apotome (Zeiss, Germany) structured illumination fluorescence using 20× objective and 63× oil objective operated with AxioVision software. Final images are presented as a maximum projection and adjusted for brightness and contrast in Adobe Photoshop (Adobe Systems). Cell image quantitation was performed using the MATLAB software (Mathworks, MA) following the protocol described in Dorgau et al., 2019 [26]. A minimum of eight individual retinal organoids were analysed for each condition. All results were further analysed using Microsoft Excel and Prism (GraphPad, USA).

[2] = tested on: retinal organoids; experiment: Retinal organoid lamination and tissue architecture at day 150; details: day 150 of differentiation
Description: (§1) Human Pluripotent Stem Cells differentiation to retinal organoids Retinal organoids were differentiated from the CRX-GFP H9 human ESC cell line using a feeder-free system. ESCs were expanded in mTeSR™1 (StemCell Technologies, 05850) at 37° C. and 5% CO2 on 6 well plates pre-coated with Low Growth Factor Matrigel (Corning, 354230). The retinal organoids were generated following a protocol described in Collin et al., 2019 [25] with addition of various supplements, which are shown in FIG. 1.
The tested supplements include Retinoic Acid (RA) (0.5 μM or 1 μM Sigma-Aldrich UK), 9-cis-retinal (0.5 μM, Sigma-Aldrich UK), 11-cis-retinal (0.5 μM, BOC Sciences), Levodopa (0.5 μM, Sigma-Aldrich UK), Triiodothyronine (T3) (20 ng/ml or 40 ng/ml, Sigma-Aldrich) and DAPT (10 μM Sigma-Aldrich UK) singly or in combination with each other from day 18 of differentiation for specific durations (day 18 onwards, day 30-60, day 60-90, day 90-120 and day 30-120), except for DAPT (FIG. 1). […]
(§2) Images were captured using an Axio Imager upright microscope with Apotome (Zeiss, Germany) structured illumination fluorescence using 20× objective and 63× oil objective operated with AxioVision software. […]

[3] = tested on: OPN1MW/LW (L/M cones) expression in retinal organoids derived from hESCs; experiment: Immunohistochemistry quantification of OPN1MW/LW+ cells (L/M cones) at day 150; details: addition day 30-120; organoids at day 150; compared to vehicle control
Description: as §1, with “1. […]” for “1.”
as §2
Cell image quantitation was performed using the MATLAB software (Mathworks, MA) following the protocol described in Dorgau et al., 2019 [26]. A minimum of eight individual retinal organoids were analysed for each condition. All results were further analysed using Microsoft Excel and Prism (GraphPad, USA).

Row | SMILES | Rhodopsin+ cells (rods), immunohistochemistry quantification [1] | Effect on tissue architecture and lamination of the retinal organoids [2] | Rhodopsin+ cells (rods), immunohistochemistry quantification ([1]; listed as RA alone) | OPN1MW/LW+ cells (L/M cones), IHC quantification [3]
1 | CC1=C(/C=C/C(C)=C\C=C\C(C)=C\C=O)C(C)(C)CCC1 [9-cis-retinal] | lower | – | – | –
2 | CC1=C(/C=C/C(C)=C/C=C/C(C)=C/C=O)C(C)(C)CCC1 [11-cis-retinal] | lower; also recorded: reduction | – | – | –
3 | C[C@H](NC(=O)Cc1cc(F)cc(F)c1)C(=O)N[C@H](C(=O)OC(C)(C)C)c1ccccc1 [DAPT] | – | did not interfere | – | –
4 | CC1=C(/C=C/C(C)=C/C=C/C(C)=C/C(=O)O)C(C)(C)CCC1 [RA, all-trans-retinoic acid] | reduction | – | lower | significantly enhanced
